Assay results published in publication PMC5145856 (Frontiers in Cellular Neuroscience, 2016).
Values joined by “and” are separate entries in the source; they are usually repeats but may differ in a detail not shown here. Equal entries are not always repeated. Where two headings read alike, the source gives them in different places.

Legend:
OR53/ORco = OR53/ORco (Anopheles gambiae, UniProt A0ABK8FS74+Q7QCC7); format: cell-based
ORco [1] = target: T1, ORco (Anopheles gambiae, UniProt Q7QCC7); set-up: method as in Tsitoura et al., 2015; details: ORco homomer; ref Tsitoura et al., 2015; cited from earlier work
T1 construct: expressed in transfected cells; host or cells: Trichoplusia ni BTI-Tn 5B1-4 HighFive (Hi5) cells, transient transfection with pEIA.ORco and pEIA.Photina
T1 sequence (Q7QCC7 1-478): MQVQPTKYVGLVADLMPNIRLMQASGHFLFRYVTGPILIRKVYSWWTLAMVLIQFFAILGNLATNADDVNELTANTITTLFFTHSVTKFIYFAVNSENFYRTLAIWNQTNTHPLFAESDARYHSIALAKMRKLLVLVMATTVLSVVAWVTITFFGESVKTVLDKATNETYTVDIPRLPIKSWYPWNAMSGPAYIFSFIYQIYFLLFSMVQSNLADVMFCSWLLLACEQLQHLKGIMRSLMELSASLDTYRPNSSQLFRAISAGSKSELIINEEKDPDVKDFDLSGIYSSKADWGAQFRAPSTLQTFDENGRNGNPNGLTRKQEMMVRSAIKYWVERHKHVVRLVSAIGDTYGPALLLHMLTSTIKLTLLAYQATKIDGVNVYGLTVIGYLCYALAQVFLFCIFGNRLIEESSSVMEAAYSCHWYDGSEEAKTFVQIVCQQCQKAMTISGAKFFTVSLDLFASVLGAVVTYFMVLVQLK

OR1/ORco [2] = target: T2, OR1/ORco (Anopheles gambiae, UniProt Q7QCC7+Q8WTE7); test: Photina Ca2+ bioluminescence assay in Hi5 cells expressing OR1/ORco; format: cell-based; details: for EC50: OR1+ORco, agonist alone
T2 construct: expressed in transfected cells; host or cells: Trichoplusia ni BTI-Tn 5B1-4 HighFive (Hi5) cells, transient transfection with pEIA plasmids
T2 sequence (Q8WTE7 1-417): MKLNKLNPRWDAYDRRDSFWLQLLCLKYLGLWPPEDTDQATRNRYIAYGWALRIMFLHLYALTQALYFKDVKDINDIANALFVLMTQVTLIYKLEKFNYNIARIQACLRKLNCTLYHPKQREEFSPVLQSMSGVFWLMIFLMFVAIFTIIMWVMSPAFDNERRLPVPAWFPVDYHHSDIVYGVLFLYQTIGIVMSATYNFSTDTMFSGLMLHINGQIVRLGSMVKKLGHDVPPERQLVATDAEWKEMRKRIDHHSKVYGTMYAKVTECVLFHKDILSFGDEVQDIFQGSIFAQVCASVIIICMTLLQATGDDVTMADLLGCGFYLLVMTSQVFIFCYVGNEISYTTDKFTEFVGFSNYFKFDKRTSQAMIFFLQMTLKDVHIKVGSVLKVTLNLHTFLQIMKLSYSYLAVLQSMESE
T2 sequence (Q7QCC7 1-478): T1 sequence (Q7QCC7 1-478)

OR9/ORco = OR9/ORco (Anopheles gambiae, UniProt A0ABK8FPD1+Q7QCC7); format: cell-based
Sequence of OR9/ORco (A0ABK8FPD1 entry or part of it, one chain of several): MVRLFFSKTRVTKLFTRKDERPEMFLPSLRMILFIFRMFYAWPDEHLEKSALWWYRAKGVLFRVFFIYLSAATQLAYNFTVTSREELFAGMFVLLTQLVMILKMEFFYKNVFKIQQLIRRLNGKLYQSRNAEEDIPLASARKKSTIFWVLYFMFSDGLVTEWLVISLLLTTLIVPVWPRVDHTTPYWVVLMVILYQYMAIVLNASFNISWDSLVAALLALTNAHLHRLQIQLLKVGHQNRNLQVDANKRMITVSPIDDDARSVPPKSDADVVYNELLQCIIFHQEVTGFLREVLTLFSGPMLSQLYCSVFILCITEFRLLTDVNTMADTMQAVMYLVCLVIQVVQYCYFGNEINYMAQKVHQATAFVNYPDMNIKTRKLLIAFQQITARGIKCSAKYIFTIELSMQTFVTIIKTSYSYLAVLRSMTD

ORco [3] = target: T1, ORco; test: Photina Ca2+ bioluminescence assay in Hi5 cells expressing ORco alone; format: cell-based; details: ORco homomer
OR2/ORco [4] = target: T3, OR2/ORco (Anopheles gambiae, UniProt Q7QCC7+Q8WTE6); test: Photina Ca2+ bioluminescence assay in Hi5 cells expressing OR2/ORco; format: cell-based; details: for EC50: OR2+ORco, agonist alone
T3 construct: expressed in transfected cells; host or cells: Trichoplusia ni BTI-Tn 5B1-4 HighFive (Hi5) cells, transient transfection with pEIA plasmids
T3 sequence (Q8WTE6 1-378): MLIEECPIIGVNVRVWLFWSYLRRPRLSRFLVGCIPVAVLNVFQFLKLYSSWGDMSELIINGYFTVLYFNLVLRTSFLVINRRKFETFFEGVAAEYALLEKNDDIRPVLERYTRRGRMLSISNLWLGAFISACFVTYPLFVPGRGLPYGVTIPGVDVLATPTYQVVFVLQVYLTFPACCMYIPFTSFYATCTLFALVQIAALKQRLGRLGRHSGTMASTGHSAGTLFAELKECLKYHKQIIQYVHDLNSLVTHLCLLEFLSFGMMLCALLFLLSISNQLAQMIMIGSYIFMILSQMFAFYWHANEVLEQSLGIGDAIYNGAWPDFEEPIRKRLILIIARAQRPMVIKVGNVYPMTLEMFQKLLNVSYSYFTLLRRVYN
T3 sequence (Q7QCC7 1-478): T1 sequence (Q7QCC7 1-478)

OR1/ORco [5] = target: T2, OR1/ORco; set-up: method as in Tsitoura et al., 2015; details: agonist alone, ref Tsitoura et al., 2015; cited from earlier work
OR2/ORco [6] = target: T3, OR2/ORco; set-up: method as in Tsitoura et al., 2015; details: agonist alone, ref Tsitoura et al., 2015; cited from earlier work
[7] = from the fitted dose-response curve, odorant alone

Sequence of OR53/ORco (A0ABK8FS74 entry or part of it, one chain of several): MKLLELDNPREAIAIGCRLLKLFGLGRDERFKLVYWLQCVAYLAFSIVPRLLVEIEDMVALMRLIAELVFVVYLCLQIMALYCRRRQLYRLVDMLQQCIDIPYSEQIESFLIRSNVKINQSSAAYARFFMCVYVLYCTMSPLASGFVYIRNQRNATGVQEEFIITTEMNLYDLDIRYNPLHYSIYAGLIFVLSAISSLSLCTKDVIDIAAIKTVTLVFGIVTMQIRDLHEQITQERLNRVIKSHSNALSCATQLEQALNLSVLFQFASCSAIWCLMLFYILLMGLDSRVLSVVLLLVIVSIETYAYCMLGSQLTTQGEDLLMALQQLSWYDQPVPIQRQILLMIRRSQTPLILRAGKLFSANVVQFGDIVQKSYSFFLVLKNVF

SMILES: C=CC(C)(O)CCC=C(C)C (stereo not shown) [LIN, Linalool]
- Concentration of the odorant at EC20 (OR53/ORco): 105 µM
- Functional response of receptor to odorant (OR53/ORco): clear responses
- EC50 (OR53/ORco; OR53+ORco, agonist alone): 181 µM
- pEC50 ± SE (OR53/ORco; OR53+ORco, agonist alone): 3.742 ± 0.04453
- EC50 (OR53/ORco; OR53+ORco, agonist alone, listed as linalool): ~180 µM

SMILES: CCc1ccc(NC(=O)CSc2nnc(-c3ccncc3)n2CC)cc1 [OA, N-(4-ethylphenyl)-2-((4-ethyl-5-(4-pyridinyl)-4H-1,2,4-triazol-3-yl)thio)acetamide]
- EC50 (ORco [1]): 59 µM and 58.9 µM
- Potentiation magnitude at EC20 of odorant (OR1/ORco [2]; 10 µM OA (ORcoRAM2), 4MP at EC20 (427nM)): ~ 93 fold
- Relative efficacy§ (relative to 100 µM ORx-specific odorant) (OR1/ORco [2]; 10 µM ORcoRAM2 alone vs 100 µM 4MP, Figure 3A): 2.88 fold
- Relative efficacy§ (potentiation relative to 100 µM ORx-specific odorant) (OR1/ORco [2]; 10 µM ORcoRAM2 together with 100 µM 4MP vs 100 µM 4MP alone, Figure 3A): 32.45 fold
- Relative efficacy# (relative to 100 µM ORx-specific odorant) (OR1/ORco [2]; 100 µM ORcoRAM2 alone vs 100 µM 4MP, Figure 1C): 10,22 fold
- EC50 (OR1/ORco [2]): 57 µM and 56.6 µM
- Potentiation magnitude at EC20 of odorant (OR9/ORco): ~ 10 fold
- Relative efficacy# (relative to 100 µM ORx-specific odorant) (OR9/ORco): 10.4 fold
- Relative efficacy* (relative to ORco) (OR9/ORco): 1,05 fold
- Relative efficacy§ (potentiation relative to 100 µM ORx-specific odorant) (OR9/ORco): 4.94 fold
- Relative efficacy§ (relative to 100 µM ORx-specific odorant) (OR9/ORco): 0.05 fold
- EC50 (OR9/ORco; read-out: EC50): 79 µM and 78.7 µM
- EC50 (ORco [3]): 97 µM and 96.6 µM
- EC50 (ORco [3]; listed as OrcoRAM2): 100 µM
- Potentiation magnitude at EC20 of odorant (OR2/ORco [4]): ~ 53 fold
- Relative efficacy§ (relative to 100 µM ORx-specific odorant) (OR2/ORco [4]; 10 µM ORcoRAM2 alone vs 100 µM IN, Figure 3A): 0.57 fold
- Relative efficacy§ (potentiation relative to 100 µM ORx-specific odorant) (OR2/ORco [4]; 10 µM ORcoRAM2 together with 100 µM IN vs 100 µM IN alone, Figure 3A): 8.09 fold
- Relative efficacy* (relative to ORco) (OR2/ORco [4]; 100 µM ORcoRAM2, no odorant, OR2/ORco vs ORco homomer, Figure 1A): 3.2 fold
- Relative efficacy# (relative to 100 µM ORx-specific odorant) (OR2/ORco [4]; 100 µM ORcoRAM2 alone vs 100 µM IN, Figure 1C): 6.22 fold
- EC50 (OR2/ORco [4]): 44 µM and 43.6 µM
- Relative efficacy* (relative to ORco) (OR53/ORco): 3.87 fold
- Relative efficacy§ (potentiation relative to 100 µM ORx-specific odorant) (OR53/ORco): 140.85 fold and 140 fold and 141 fold
- Relative efficacy§ (relative to 100 µM ORx-specific odorant) (OR53/ORco): 16.3 fold
- EC50 (OR53/ORco; read-out: EC50): 57 µM and 56.6 µM

SMILES: Cc1ccc(O)cc1 [4MP, 4-Methylphenol]
- EC50 (OR1/ORco [2]): 1.2 µM
- Concentration of the odorant at EC20 (OR1/ORco [2]; [7]): 0.427 µM
- EC50 (OR1/ORco [5]): 2.8 µM

SMILES: CCc1ccccc1O [2EP, 2-Ethylphenol]
- Concentration of the odorant at EC20 (OR9/ORco): 35 µM
- Functional response of receptor to odorant (OR9/ORco): responded
- EC50 (OR9/ORco; OR9+ORco, agonist alone): 77.6 µM
- pEC50 ± SE (OR9/ORco; OR9+ORco, agonist alone): 4.110 ± 0.009062
- EC50 (OR9/ORco; OR9+ORco, agonist alone, listed as 2-ethylphenol): ~78 µM

SMILES: c1ccc2[nH]ccc2c1 [IN, Indole]
- EC50 (OR2/ORco [4]): 5.5 µM
- Concentration of the odorant at EC20 (OR2/ORco [4]; [7]): 3.3 µM
- EC50 (OR2/ORco [6]): 3.4 µM
